Our source for the IC50 and EC50 values is patent publication US20120101032A1, “NOVEL MACROCYCLIC INHIBITORS OF HEPATITIS C VIRUS REPLICATION” (priority 2010, published 2012).

Read-outs that look alike come from different tables or passages of the source.

The target in assay [1] is NS3/NS4 complexes (Hepatitis C virus genotype 1a, UniProt P27958). Briefly: biochemical. The method, boiled down:
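NS3/NS4 protease complexes were formed and compound inhibitory concentrations (IC50) measured at ambient temperature (23° C.) in 50 mM Tris-HCl, pH 7.5, with 15% glycerol, 0.6 mM LDAO, 25 μM NS4A peptide and 10 mM DTT. Replicon EC50 values come from a standard HCV replicon cell assay.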

For assay [2], the system named is hepatitis C replicon. Briefly: hepatitis C replicon EC50 assay. The note with it: Hepatitis C virus. The format is cell-based. The source says:
NS3-NS4 inhibition activity can be determined using known assay methods.
For orientation: In antiviral work, replicon cells carry a viral genome segment that copies itself.

The mark [3] stands for this setting: NS3-NS4 activity, 23° C., pH 7.5, 25 μM NS4A peptide, read-out: IC50.
Where [4] appears, read: hepatitis C replicon, read-out: EC50.

Chain of NS3/NS4 complexes (P27958 1027-1657, one chain of several): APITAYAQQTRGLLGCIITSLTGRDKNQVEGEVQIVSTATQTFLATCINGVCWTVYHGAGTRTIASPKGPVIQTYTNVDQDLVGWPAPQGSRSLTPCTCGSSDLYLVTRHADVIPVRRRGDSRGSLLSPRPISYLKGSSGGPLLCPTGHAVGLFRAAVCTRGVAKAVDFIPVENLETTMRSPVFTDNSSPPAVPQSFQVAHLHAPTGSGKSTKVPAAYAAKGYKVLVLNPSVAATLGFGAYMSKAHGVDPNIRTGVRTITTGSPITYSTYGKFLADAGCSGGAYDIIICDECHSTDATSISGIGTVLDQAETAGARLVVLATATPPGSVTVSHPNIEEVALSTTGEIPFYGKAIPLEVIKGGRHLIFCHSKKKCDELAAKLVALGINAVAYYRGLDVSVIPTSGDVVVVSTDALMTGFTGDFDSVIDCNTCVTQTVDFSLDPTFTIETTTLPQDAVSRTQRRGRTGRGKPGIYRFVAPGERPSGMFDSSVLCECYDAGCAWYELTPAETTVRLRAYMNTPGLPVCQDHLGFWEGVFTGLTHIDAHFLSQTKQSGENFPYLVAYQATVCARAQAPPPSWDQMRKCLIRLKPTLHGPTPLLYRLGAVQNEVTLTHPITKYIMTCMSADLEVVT

For the compound `CC(C)n1c(O[C@@H]2C[C@H]3C(=O)N[C@]4(C(=O)NS(=O)(=O)N(C)C)C[C@H]4/C=C\CCCCC[C@H](NC(=O)OC(C)(C)C)C(=O)N3C2)nc2c(-c3nc(-c4ccc(F)c(F)c4)cs3)cccc21` [Compound 140], the IC50 in assay [1] (setting [3]) is less than 10 nM. Also, the concentration for a half-maximal effect (EC50) in assay [2] (setting [4]) was less than 10 nM.

For the compound `CC(C)n1c(O[C@@H]2C[C@H]3C(=O)N[C@]4(C(=O)NS(=O)(=O)C5(C)CC5)C[C@H]4/C=C\CCCCC[C@H](NC(=O)OC(C)(C)C)C(=O)N3C2)nc2c(-c3nc(Cc4ccc(Cl)cc4)cs3)cccc21` [Compound 122], the IC50 in assay [1] (setting [3]) is less than 10 nM. For the same compound, the EC50 in assay [2] (setting [4]) was greater than 100 nM.

`CC(C)n1c(O[C@@H]2C[C@H]3C(=O)N[C@]4(C(=O)NS(=O)(=O)C5(C)CC5)C[C@H]4/C=C\CCCCC[C@H](NC(=O)O[C@@H]4C[C@@H]5C[C@@H]5C4)C(=O)N3C2)nc2c(-c3nc(Cc4ccccc4)cs3)cccc21` [Compound 166]: the IC50 in assay [1] (setting [3]) was less than 10 nM. For the same compound, in assay [2] (setting [4]), the EC50 was less than 10 nM.

For the compound `CC(C)n1c(O[C@@H]2C[C@H]3C(=O)N[C@]4(C(=O)NS(=O)(=O)C5(C)CC5)C[C@H]4/C=C\CCCCC[C@H](NC(=O)OC(C)(C)C)C(=O)N3C2)nc2c(-c3nc(C4CCNCC4)cs3)cccc21` [Compound 182], the IC50 in assay [1] is less than 10 nM. In assay [2], this compound registered an EC50 of 10 to 100 nM.

In the case of `CC(C)n1c(O[C@@H]2C[C@H]3C(=O)N[C@]4(C(=O)NS(=O)(=O)C5(C)CC5)C[C@H]4/C=C\CCCCC[C@H](NC(=O)OC(C)(C)C)C(=O)N3C2)nc2c(-c3nc(-c4cccc(F)c4)cs3)cccc21` [Compound 104], the IC50 in assay [1] (setting [3]) is less than 10 nM. Moreover, the EC50 in assay [2] (setting [4]) was 10 to 100 nM.

In the case of `CC(C)n1c(O[C@@H]2C[C@H]3C(=O)N[C@]4(C(=O)NS(=O)(=O)N(C)C)C[C@H]4/C=C\CCCCC[C@H](NC(=O)OC(C)(C)C)C(=O)N3C2)nc2c(-c3nc(Cc4cccc(OC(F)(F)F)c4)cs3)cccc21` [Compound 150], the IC50 in assay [1] (setting [3]) is less than 10 nM. Also, in assay [2] (setting [4]), the EC50 lay within 10 to 100 nM.

As for `COc1ccccc1Cc1csc(-c2cccc3c2nc(O[C@@H]2C[C@H]4C(=O)N[C@]5(C(=O)NS(=O)(=O)C6(C)CC6)C[C@H]5/C=C\CCCCC[C@H](NC(=O)OC(C)(C)C)C(=O)N4C2)n3C(C)C)n1` [Compound 115], in assay [1] (setting [3]), the IC50 was less than 10 nM. Further, the EC50 in assay [2] (setting [4]) is less than 10 nM.

As usually defined, the IC50 is the concentration needed to halve the response being measured. One may read the EC50 as the concentration that produces a half-maximal response.
